According to the supplement of paper PMC5908809:

Assays:
[1] = tested on: normal NK cells expanded with K562-aAPC; test: percent inhibition of viability; higher = more inhibition; settings: 72 h, IL-2 2.5 ng/mL
Description: (§1)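 Drug sensitivity and resistance testing on K562-aAPC-expanded normal NK cells: 5 concentrations (10-fold steps over a 10,000-fold range), 72 h at 37 °C, viability by CellTiter-Glo normalised to DMSO and benzethonium chloride controls; DSS from the fitted curve.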

[2] = tested on: DERL-7 (IL-2 2.5 ng/mL); test: as above; settings: 72 h
[3] = tested on: IMC-1 (IL-2 20 ng/mL); test: as above; settings: 72 h
[4] = tested on: KAI3 (IL-2 2.5 ng/mL); test: as above; settings: 72 h
[5] = tested on: KHYG-1 (IL-2 2.5 ng/mL); test: as above; settings: 72 h
[6] = tested on: NK-92 (IL-2 2.5 ng/mL); test: as above; settings: 72 h
[7] = tested on: NK-YS (IL-2 2.5 ng/mL); test: as above; settings: 72 h
[8] = tested on: NKL (IL-2 2.5 ng/mL); test: as above; settings: 72 h
[9] = tested on: SNK-6 (IL-2 2.5 ng/mL); test: as above; settings: 72 h
[10] = tested on: YT (IL-2 2.5 ng/mL); test: as above; settings: 72 h
[11] = tested on: normal primary NK cells, pool 1 (3 donors) (IL-2 2.5 ng/mL); test: as above; settings: 72 h
[12] = tested on: normal primary NK cells, pool 1 (3 donors), resting (IL-2 0 ng/mL); test: as above; settings: 72 h
[13] = tested on: normal primary NK cells, pool 2 (3 donors) (IL-2 2.5 ng/mL); test: as above; settings: 72 h
[14] = tested on: normal primary NK cells, pool 3 (3 donors) (IL-2 2.5 ng/mL); test: as above; settings: 72 h
[15] = tested on: normal NK cells expanded with K562-aAPC; test: drug sensitivity score (DSS) (DSS units); higher = more sensitive; extreme values may be limits of the assay; settings: 72 h; IL-2 2.5 ng/mL
Description: as §1

[16] = tested on: DERL-7 (IL-2 2.5 ng/mL); test: as above; settings: 72 h
[17] = tested on: IMC-1 (IL-2 20 ng/mL); test: as above; settings: 72 h
[18] = tested on: KAI3 (IL-2 2.5 ng/mL); test: as above; settings: 72 h
[19] = tested on: KHYG-1 (IL-2 2.5 ng/mL); test: as above; settings: 72 h
[20] = tested on: NK-92 (IL-2 2.5 ng/mL); test: as above; settings: 72 h
[21] = tested on: NK-YS (IL-2 2.5 ng/mL); test: as above; settings: 72 h
[22] = tested on: NKL (IL-2 2.5 ng/mL); test: as above; settings: 72 h
[23] = tested on: SNK-6 (IL-2 2.5 ng/mL); test: as above; settings: 72 h
[24] = tested on: YT (IL-2 2.5 ng/mL); test: as above; settings: 72 h
[25] = tested on: normal primary NK cells, pool 1 (3 donors) (IL-2 2.5 ng/mL); test: as above; settings: 72 h
[26] = tested on: normal primary NK cells, pool 1 (3 donors), resting (IL-2 0 ng/mL); test: as above; settings: 72 h
[27] = tested on: normal primary NK cells, pool 2 (3 donors) (IL-2 2.5 ng/mL); test: as above; settings: 72 h
[28] = tested on: normal primary NK cells, pool 3 (3 donors) (IL-2 2.5 ng/mL); test: as above; settings: 72 h

COCC1(CO)C(=O)C2CCN1CC2 (centres undefined) [APR-246] (max concentration tested 10000 nM)
percent inhibition of viability [%]
Settings | 1 nM | 10 nM | 100 nM | 1000 nM | 10000 nM
[1] | -2.16 | 1.78 | 5.44 | 14.3 | 66.4
[2] | 4.22 | 1.94 | 4.99 | -6.45 | 12.9
[3] | -7.37 | -2.9 | -3.59 | 8.76 | 9.03
[4] | -1.81 | 0.4 | -2.31 | 2.12 | 16.5
[5] | -5.21 | -0.64 | -2.81 | 5.38 | 7.34
[6] | -5.03 | 9.77 | 10.8 | 10.9 | 10.2
[7] | -7.21 | 1.41 | 3.46 | 5.78 | 20.9
[8] | -3.21 | -5.06 | 5.12 | 11 | 36.4
[9] | 4.82 | 6.66 | 11.8 | 20.5 | 26.2
[10] | -1.79 | -3.13 | 4.5 | 1.6 | 7.67
[11] | 0.39 | -11.5 | 5.91 | 70.5 | 98
[12] | -1.14 | -6.72 | 13.5 | 82.8 | 91.7
[13] | -11.3 | -4.04 | 11.3 | 77 | 96
[14] | -9.08 | -4.43 | 12.5 | 73 | 98

Settings | drug sensitivity score
[15] | 5.95
[16] | 0.03
[17] | 0
[18] | 0.58
[19] | 0
[20] | 0.65
[21] | 1.17
[22] | 3.01
[23] | 3.96
[24] | 0
[25] | 14.2
[26] | 16.9
[27] | 15.7
[28] | 15.2
